Laboratory results as given in patent US20260232805A1, “METHODS FOR IMAGING USING SPCCT” (NH THERAGUIX, priority 2022, published 2026).

Assay: Osmolarity of the contrast agent composition
Type: physicochemical
Details: comparator, hyperosmolar
Text: For comparison, Dotarem® (gadoteric acid, GUERBET, FRANCE) is hyperosmolar at 1574 mosm, which can cause side effects in humans related to the hypertonicity of a hyperosmolar product creating an intense call of water from the interstitial and cellular spaces to the plasma, responsible for pain or heat. A pain threshold of 600 mOsm/kg has been set.

- Osmolarity: 1574 mosm
SMILES: O=C([O-])CN1CCN(CC(=O)[O-])CCN(CC(=O)O)CCN(CC(=O)[O-])CC1.[Gd+3] [Dotarem®, gadoteric acid]
